Where a name gives a salt, the structure may show the parent alone.
Experiments:
[1] = tested on: Ischemic and Nonischemic Isolated Rat Heart; assay: Isolated perfused rat heart (Langendorff), global ischemia/reperfusion: cardiac function, flow and LDH release; parameters: species or system rat (male Sprague-Dawley); FLOW (coronary blood flow): unit not given here; details: for DP (Double Product, HR x LVDP / 1,000) / FLOW (coronary blood flow) / HR (Heart Rate) / LVDP (Left Ventricular Developed Pressure) / LDH (Lactate Dehydrogenase Release) / LDH/DP / cardioprotection compared with diltiazem: 1 μM; for LDH (Lactate Dehydrogenase Release): Postischemia, cumulative over 30 min reperfusion, per g preischemia heart weight, lower = greater cardioprotection; for LDH/DP: ratio of cardioprotection to cardiodepression, lower = greater selectivity; for cardioprotection compared with diltiazem: post-ischemia LDH
Procedure: Lactate dehydrogenase is an enzyme released in the heart during an ischemic event and is an index of cardiac cell necrosis. In the Grover et al. model, this is measured during reperfusion and an agent which provides for lower release levels of LDH is considered to offer greater cardioprotection since lower LDH indicates a smaller infarct size. Cardiac function is determined using the double product (DP) of heart rate times the left ventricular developed pressure (LVDP) divided by 1,000.
The lower the value for DP before ischemia for a given agent, the more cardiodepressant it is considered to be.
Male Sprague-Dawley rats (450-550 g) were used in all experiments. The rats were anesthetized using 30 mg/kg sodium pentobarbital (i.p.). They were intubated and then treated with i.v. heparin (1000 U/kg). While being mechanically ventilated, their hearts were perfused in situ via retrograde cannulation of the aorta. The hearts were then excised and quickly moved to a Langendorff apparatus where they were perfused with Krebs-Henseleit bicarbonate buffer (112 mM NaCl, 5 mM KCl, 1.2 mMMg SO4, 1 mM KH2 PO4, 1.25 mM CaCl2, 11.5 mM dextrose, and 2 mM pyruvate) at a constant pressure (75 mm Hg). A water filled latex balloon attached to a metal cannula was then inserted into the left ventricle and connected to a Statham pressure transducer for measurement of left ventricular pressure. The hearts were allowed to equilibrate for 15 minutes at which time end diastolic pressure (EDP) was adjusted to 5 mm Hg and this was maintained for 5 minutes. Pre-ischemia or pre-drug function, heart rate and coronary blood flow (extracorporeal electromagnetic flow probe, Carolina Medical Electronics, King, N.C.) were then measured. Cardiac function was determined using the double product of heart rate (HR) times left ventricular developed pressure (LVDP) divided by 1,000.
All of these hearts were treated with their respective drugs or vehicle for ten minutes. At this time, post-drug cardiac function and flow were measured and then the hearts were made globally ischemic by shutting off the buffer perfusion. The ischemia was maintained for 25 minutes at which time reperfusion with nondrug treated buffer was instituted. Reperfusion was maintained for 30 minutes and at this time reperfusion function and flow were again determined.
At the end of the reperfusion period, the reperfusion buffer was sampled for cumulative LDH release as previously described. LDH release was expressed as U/g preischemia heart weight for the 30 minute collection period. LDH release is a sensitive index for loss of cell viability. Determination of the relationship between pre-ischemic, post-drug cardiac function was made by dividing the double product (HR ×LVDP/1000) by the cumulative LDH release.
All data were analyzed using a one way analysis of variance. Multiple comparisons were done using the Duncan procedure. All data are expressed as the mean±SE.
The pre-ischemia DP values are a measure of the cardiodepression of the drug on the healthy cardiac tissue.
The post-ischemia LDH values are a measure of the cardioprotection or anti-ischemic activity of the drug. In this case, lower values indicate greater anti-ischemic activity or greater cardioprotection.
The LDH/DP values are the ratio of cardioprotection to cardiodepression, the lower values indicating a greater selectivity for anti-ischemic activity.
The post-ischemia DP indicates cardiodepression after the ischemic episode and the lower DP values here are indicative of agents which still remained in the cardiac tissue for more than 30 minutes post ischemia. [drawing 16]

[2] = tested on: isolated canine cardiac Purkinje fibers; assay: Calcium-dependent slow response action potential amplitude (SAPA), standard microelectrode techniques; assay type: cell-based; details: Canis lupus familiaris, read-out: IC50 in reducing slow response action potential amplitude (SAPA)
Procedure: (§1) The calcium channel blocking and sodium entry blocking activities of compounds of the present invention were tested using standard microelectrode techniques in isolated canine cardiac Purkinje fibers as reported in J. L. Bergey et al., "Antiarrhythmic, hemodynamic, and cardiac electrophysiological evaluation of N-(2,6-dimethylphenyl)-N'-[3-(1-methylethylamino)propyl]-urea), (Wy 42,362)", Arzneim -Forsch, 33:1258, 1983). […] Depression of this parameter indicates depression of calcium entry into cardiac tissue. […] Significant depression of the upstroke velocity (vmax) indicates the blocking of sodium entry into cardiac tissue.

[3] = tested on: isolated canine cardiac Purkinje fibers; assay: Normal action potential parameters incl. upstroke velocity (Vmax; sodium entry), standard microelectrode techniques; assay type: cell-based; details: for Vmax (velocity of upstroke): in V/s (unit assumed)
Procedure: as §1

rabbit aorta = assay: Reduction of tone of rabbit aorta by high potassium (Vasc. Ca^++ Block); assay type: cell-based; details: Oryctolagus cuniculus; read-out: IC50 in reducing tone of rabbit aorta by high potassium (Vasc. Ca^++ Block)
Excerpt: |(SAPA), in reducing maximum upstroke velocity (Vmax) |and in reducing tone of rabbit aorta by high potassium |(Vasc. Ca^++ Block)

[4] = Postischemia (30 min.), occlusion 25 minutes, reperfusion 30 minutes
[5] = Preischemia (Post Drug), lower = more cardiodepressant

| SMILES | DP (Double Product, HR x LVDP / 1,000) [1, 4] | FLOW (coronary blood flow) [1, 4] | HR (Heart Rate) [1, 4] [beats/min] | LVDP (Left Ventricular Developed Pressure) [1, 4] [mmHg] | LDH (Lactate Dehydrogenase Release) [1] [U/g] | FLOW (coronary blood flow) ([1]; Preischemia (Post Drug)) | HR (Heart Rate) ([1]; Preischemia (Post Drug)) [beats/min] | LVDP (Left Ventricular Developed Pressure) ([1]; Preischemia (Post Drug)) [mmHg] | DP (Double Product, HR x LVDP / 1,000) [1, 5] | LDH/DP [1] | also measured |
| --- | --- | --- | --- | --- | --- | --- | --- | --- | --- | --- | --- |
| COc1ccc([C@@H]2Sc3ccccc3N(CCN(C)C)C(=O)[C@@H]2OC(C)=O)cc1 [Diltiazem, reference compound] | 24 | 17 | 231 | 104 | 10 | 22 | 217 | 45 | 10 | 0.98 | ischemic selectivity among diltiazem, nifedipine and verapamil ([1]; Grover et al. methodology): greatest ischemic selectivity |
| COc1ccc(CSc2ccccc2N(CCCN(C)C)C(=O)Cc2ccccc2)cc1 [Example 2, N-[3-(Dimethylamino)propyl]-N-[2-[[(4-methoxyphenyl)methyl]thio]phenyl]benzeneacetamide, monohydrochloride] | 14 | 11 | 188 | 73 | 8.9 | 20 | 219 | 135 | 29 | 0.30 |  |
| CN(C)CCCN(C(=O)Cc1ccccc1)c1ccccc1SCc1ccccc1.Cl [Example 3, N-[3-(Dimethylamino)propyl]-N-[2-[(phenylmethyl)thio]phenyl]benzeneacetamide, monohydrochloride] | 22 | 11 | 238 | 93 | 5.2 | 18 | 243 | 79 | 19 | 0.30 | IC50 [2]: 1500 nM; APD 50 (action potential duration @ 50% repolarization) ([3]; 1 × 10^-5): 123 ± 2; APD90 (action potential duration @ 90% repolarization) ([3]; 1 × 10^-5): 271 ± 8; PP (peak potential) ([3]; 1 × 10^-5): 7 ± 1; RP (resting potential) ([3]; 1 × 10^-5): 84 ± 1; Vmax (velocity of upstroke) ([3]; 1 × 10^-5): 156 ± 11; APD 50 (action potential duration @ 50% repolarization) ([3]; 1 × 10^-6): 181 ± 5; APD90 (action potential duration @ 90% repolarization) ([3]; 1 × 10^-6): 282 ± 2; PP (peak potential) ([3]; 1 × 10^-6): 32 ± 1; RP (resting potential) ([3]; 1 × 10^-6): 88 ± 1; Vmax (velocity of upstroke) ([3]; 1 × 10^-6): 401 ± 16; APD 50 (action potential duration @ 50% repolarization) ([3]; 3 × 10^-6): 125 ± 3; APD90 (action potential duration @ 90% repolarization) ([3]; 3 × 10^-6): 251 ± 1; PP (peak potential) ([3]; 3 × 10^-6): 26 ± 1; RP (resting potential) ([3]; 3 × 10^-6): 88 ± 1; Vmax (velocity of upstroke) ([3]; 3 × 10^-6): 286 ± 9; IC50 ([3]; Canis lupus familiaris, purkinje, sodium entry, read-out: IC50 in reducing maximum upstroke velocity (Vmax)): 3800 nM; IC50 (rabbit aorta): 1700 nM; cardioprotection compared with diltiazem [1]: offered more cardioprotection than diltiazem |
| CN(C)CCN(C(=O)Cc1ccccc1)c1ccccc1SCc1ccccc1.Cl [Example 4, N-[2-(Dimethylamino)ethyl]-N-[2-[(phenylmethyl)thio]phenyl]benzeneacetamide, monohydrochloride] | 15 | 15 | 239 | 60 | 21 | 20 | 236 | 123 | 30 | 0.79 |  |
| CN(C)CCCCN(C(=O)Cc1ccccc1)c1ccccc1SCc1ccccc1 [Example 5, N-[4-(Dimethylamino)butyl]-N-[2-[(phenylmethyl)thio]phenyl]benzeneacetamideoxalate (1:1) salt] | 10 | 11 | 180 | 51 | 16.5 | 15 | 253 | 115 | 29 | 0.57 |  |
| CN(C)CCCN(C(=O)Cc1ccccc1)c1ccccc1OCc1ccccc1.O=C(O)C(=O)O [Example 6, N-[3-(Dimethylamino)propyl]-N-[2-(phenylmethoxy)phenyl]benzeneacetamide, oxalate salt (1:1)] | 20 | 10 | 222 | 89 | 5.7 | 15 | 230 | 113 | 26 | 0.22 |  |
| CN(C)CCCN(C(=O)c1ccccc1)c1ccccc1SCc1ccccc1.Cl [Example 7, 2'-(Benzylthio)-N-[3-(dimethylamino)propyl]benzanilide, hydrochloride] | 15 | 8 | 220 | 72 | 6.7 | 11 | 218 | 132 | 29 | 0.24 |  |
| COc1cc(SCc2ccccc2)c(N(CCCN(C)C)C(=O)Cc2ccccc2)cc1OC [Example 8, N-[3-(Dimethylamino)propyl]-N-[4,5-dimethoxy-2-sulfonyl),[(phenylmethyl)thio]phenyl]benzeneacetamide, oxalate (1:1) salt] | 17 | 8 | 246 | 71 | 3.7 | 19 | 216 | 65 | 14 | 0.26 |  |
| COc1ccc(CSc2cc(Cl)ccc2N(CCCN(C)C)C(=O)Cc2ccccc2)cc1.Cl [Example 9, N-[3-(Dimethylamino)propyl]-N-[4-chloro-2-[[(4-methoxyphenyl)methyl]thio]phenyl]benzeneacetamide, monohydrochloride] | 11 | 9 | 214 | 52 | 8.2 | 18 | 226 | 126 | 29 | 0.29 | cardioprotection compared with diltiazem [1]: comparable to diltiazem in cardioprotection |
| CN(C)CCCCN(C(=O)C=Cc1ccccc1)c1ccccc1SCc1ccccc1 [Example 24, N-[4-(Dimethylamino)butyl]-3-phenyl-N-[2-[(phenylmethyl)thio]phenyl]-2-propenamide, oxalate salt (1:1)] |  |  |  |  |  |  |  |  |  |  | IC50 [2]: 2600 nM; IC50 (rabbit aorta): 1200 nM |
